Measurements reported in patent US20100113437A1, “Active Compound Combinations Having Insecticidal and regular, utility” (BAYER CROPSCIENCE AG, priority 2006, published 2010).

What was measured:
[1] = test system: Phaedon cochleariae larvae; assay: Phaedon cochleariae larvae test (Example D, spray); conditions: single active compound
[2] = test system: Spodoptera frugiperda larvae; assay: Spodoptera frugiperda larvae test (Example F, spray); format: in vivo; conditions: single active compound
Myzus persicae [3] = assay: Myzus persicae test (Example C, cabbage leaves sprayed, DMF); format: in vivo; conditions: single active compound
Aphis gossypii = Aphis gossypii test (Example A, cotton leaves dipped); format: in vivo; conditions: single active compound; for Kill in % after 1d: 100 ppm; for Kill in % after 6d: 0.8 ppm
[4] = test system: Spodoptera frugiperda larvae; assay: Spodoptera frugiperda larvae test (Example G, leaf dip); format: in vivo; conditions: single active compound; for Kill in % after 2d: 100 ppm; for Kill in % after 3d: 4 ppm
Myzus persicae [5] = assay: Myzus persicae test (Example B, cabbage leaves sprayed, acetone/DMF); format: in vivo; conditions: single active compound
Tetranychus urticae = assay: Tetranychus test, OP-resistant/spray treatment (Example H); format: in vivo; conditions: single active compound; for Kill in % after 6d: 0.8 g/ha
Description: Disks of bean leaves (Phaseolus vulgaris) which are infested by all stages of the greenhouse red spider mite (Tetranychus urticae) are sprayed with an active compound preparation of the desired concentration.
After the desired period of time, the activity in % is determined.

Plutella xylostella = Plutella xylostella test (Example E, leaf dip); format: in vivo; conditions: 0.8 ppm, single active compound

Molecule: N#Cc1ccc(CC(=NNC(=O)Nc2ccc(OC(F)(F)F)cc2)c2cccc(C(F)(F)F)c2)cc1 (mixture of isomers) [metaflumizone]
- Kill in % after 6d ([1]; 100 g/ha): 0%
- Kill in % after 6d ([2]; 20 g/ha): 83%

Molecule: CNC(=O)c1cc(Cl)cc(C)c1NC(=O)c1cc(Br)nn1-c1ncccc1Cl [Rynaxapyr]
- Kill in % after 1d (Myzus persicae [3]; 4 ppm): 35%
- Kill in % after 1d (Aphis gossypii): 75%
- Kill in % after 2d ([2]; 0.8 g/ha): 67%

Molecule: CO[C@H]1CC[C@]2(CC1)NC(=O)C(c1cc(C)ccc1C)=C2O [compound (I)]
- Kill in % after 2d [4]: 0%
- Kill in % after 1d (Myzus persicae [3]; 4 ppm): 0%
- Kill in % after 1d (Myzus persicae [3]; 20 ppm): 15%
- Kill in % after 1d (Aphis gossypii): 0%

Molecule: CCOC(=O)OC1=C(c2cc(C)ccc2C)C(=O)N[C@]12CC[C@@H](OC)CC2 [compound (II)]
- Kill in % after 3d [4]: 0%
- Kill in % after 6d ([1]; 20 g/ha): 17%
- Kill in % after 6d ([1]; 100 g/ha): 50%
- Kill in % after 1d (Myzus persicae [5]; 20 g/ha): 10%
- Kill in % after 1d (Myzus persicae [5]; 100 g/ha): 10%
- Kill in % after 6d (Tetranychus urticae): 50%
- Kill in % after 2d (Tetranychus urticae; 20 g/ha): 10%
- Kill in % after 2d (Tetranychus urticae; 100 g/ha): 20%
- Kill in % after 6d (Aphis gossypii): 0%
- Kill in % after 6d ([2]; 0.16 g/ha): 0%
- Kill in % after 6d ([2]; 0.8 g/ha): 0%
- Kill in % after 2d ([2]; 4 g/ha): 0%
- Kill in % after 2d ([2]; 20 g/ha): 0%
- Kill in % after 6d ([2]; 20 g/ha): 0%
- Kill in % after 6d (Plutella xylostella): 10%

Molecule: CCOC(=O)OC1=C(c2cc(C)ccc2C)C(=O)NC12CCC(OC)CC2 (centres unmarked) [compound (IIa)]
- Kill in % after 3d [4]: 0%
- Kill in % after 6d ([1]; 20 g/ha): 0%
- Kill in % after 6d ([1]; 100 g/ha): 67%
- Kill in % after 1d (Myzus persicae [5]; 20 g/ha): 0%
- Kill in % after 1d (Myzus persicae [5]; 100 g/ha): 0%
- Kill in % after 6d (Tetranychus urticae): 60%
- Kill in % after 2d (Tetranychus urticae; 20 g/ha): 0%
- Kill in % after 2d (Tetranychus urticae; 100 g/ha): 10%
- Kill in % after 6d (Aphis gossypii): 0%
- Kill in % after 6d ([2]; 0.16 g/ha): 0%
- Kill in % after 6d ([2]; 0.8 g/ha): 0%
- Kill in % after 2d ([2]; 4 g/ha): 0%
- Kill in % after 2d ([2]; 20 g/ha): 0%
- Kill in % after 6d ([2]; 20 g/ha): 0%
- Kill in % after 6d (Plutella xylostella): 80%

Molecule: COC1CCC2(CC1)NC(=O)C(c1cc(C)ccc1C)=C2O (centres unmarked) [compound (Ia)]
- Kill in % after 2d [4]: 0%
- Kill in % after 1d (Myzus persicae [3]; 4 ppm): 0%
- Kill in % after 1d (Myzus persicae [3]; 20 ppm): 10%
- Kill in % after 1d (Aphis gossypii): 0%

Molecule: CC[S+]([O-])c1c(C#N)nn(-c2c(Cl)cc(C(F)(F)F)cc2Cl)c1N (centres unmarked) [ethiprole]
- Kill in % after 2d (Tetranychus urticae; 20 g/ha): 20%

Molecule: N#Cc1nn(-c2c(Cl)cc(C(F)(F)F)cc2Cl)c(N)c1[S+]([O-])C(F)(F)F (centres unmarked) [fipronil]
- Kill in % after 1d (Myzus persicae [3]; 20 ppm): 10%
- Kill in % after 1d (Myzus persicae [5]; 20 g/ha): 20%
- Kill in % after 6d (Tetranychus urticae): 0%

Molecule: Cc1cc(C(F)(C(F)(F)F)C(F)(F)F)ccc1NC(=O)c1cccc(I)c1C(=O)NC(C)(C)CS(C)(=O)=O [flubendiamide]
- Kill in % after 6d ([2]; 0.8 g/ha): 50%

Molecule: O=C(NC(=O)c1c(F)cccc1F)Nc1ccc(Oc2ccc(C(F)(F)F)cc2Cl)cc1F [flufenoxuron]
- Kill in % after 6d ([1]; 20 g/ha): 50%
- Kill in % after 6d ([2]; 0.16 g/ha): 83%

Molecule: O=C(NC(=O)c1c(F)cccc1F)Nc1cc(Cl)c(OC(F)(F)C(F)C(F)(F)F)cc1Cl (centres unmarked) [lufenuron]
- Kill in % after 2d [4]: 40%
- Kill in % after 6d ([1]; 20 g/ha): 83%
- Kill in % after 2d ([2]; 20 g/ha): 50%

Molecule: O=C(NC(=O)c1ccccc1Cl)Nc1ccc(OC(F)(F)F)cc1 [triflumuron]
- Kill in % after 1d (Myzus persicae [5]; 100 g/ha): 0%
- Kill in % after 2d (Tetranychus urticae; 100 g/ha): 0%

Molecule: emamectin benzoate
- Kill in % after 6d (Aphis gossypii): 15%
